Reference: US11685734B2, “ATM kinase inhibitors and compositions and methods of use thereof” (CHDI Foundation, Inc., priority 2019, dated 2023)
pIC50: −log10 of the molar value.

Experiments:
[1] = molecular target: Recombinant, full length human FLAG-tagged ATM (Homo sapiens (Human), UniProt Q13315); test: ATM ELISA for p53 S15 phosphorylation; assay type: biochemical; conditions: 0.75 nM ATM, 25 nM p53, 10 μM ATP, 30 min at 20° C.; read-out: ATM BIO IC50
Experimental: ATM: Recombinant, full length human FLAG-tagged ATM activity (Eurofins 14-933) was measured in an ELISA for p53 S15 phosphorylation, in a 384 well V-bottom polypropylene plate (Greiner Bio One 781280). Reactions contained 0.75 nM ATM, 25 nM full length myc tagged p53 (Eurofins 23-034), 10 μM UltraPure ATP (Promega V915B) and serial dilutions of inhibitors (0.1% DMSO final) in 25 mM HEPES, pH 7.5. 5 mM MgCl2, 2.5 mM MnCl2, 0.006% Brij-35, 0.5% glycerol, 0.1 mg/ml BSA, 0.5 mM DTT and were allowed to proceed for 30 min at 20° C. 70 mM EDTA final terminated the kinase reactions. An aliquot of the terminated reaction (25 μl) was transferred to a 384-well, high binding microplate (Greiner Bio One 781061), precoated with anti-myc capture antibody overnight (Millipore 05-724) diluted in 1:1000 in PBS, then blocked with Odyssey blocking buffer (LI-COR Biosciences 92740000) for 60 min at 20° C. The terminated reaction was allowed to capture for 2 h at 20° C. Phosphorylation was measured using an antibody specific to p53 S15 phosphorylation (1:5000 Abcam ab38497), anti-rabbit HRP (1:1000 Cell Signalling Technology, 7074) and TMB (ab171522). Antibodies were diluted in Odyssey blocking buffer and incubated for 60 min at 20° C. Three washes with PBS containing 0.05% (v/v) Tween 20 (PBS-T) were performed between each incubation. The TMB reaction was stopped with an equal volume of 0.2 M sulfuric acid and absorbance read at 450 nm on the Perkin Elmer Envision within 30 min of terminating the reaction. […] IC50 values represent the mean from at least two independent experiments.

cellular ATM activity = cellular ATM activity (Homo sapiens (Human), UniProt Q13315); test: Inhibition of cellular ATM activity: etoposide-stimulated KAP1 phosphorylation in U20S cells; assay type: cell-based; conditions: 100 μM etoposide, 60 min, read-out: ATM CELL IC50
cellular ATM activity, sequence (Q13315 whole entry): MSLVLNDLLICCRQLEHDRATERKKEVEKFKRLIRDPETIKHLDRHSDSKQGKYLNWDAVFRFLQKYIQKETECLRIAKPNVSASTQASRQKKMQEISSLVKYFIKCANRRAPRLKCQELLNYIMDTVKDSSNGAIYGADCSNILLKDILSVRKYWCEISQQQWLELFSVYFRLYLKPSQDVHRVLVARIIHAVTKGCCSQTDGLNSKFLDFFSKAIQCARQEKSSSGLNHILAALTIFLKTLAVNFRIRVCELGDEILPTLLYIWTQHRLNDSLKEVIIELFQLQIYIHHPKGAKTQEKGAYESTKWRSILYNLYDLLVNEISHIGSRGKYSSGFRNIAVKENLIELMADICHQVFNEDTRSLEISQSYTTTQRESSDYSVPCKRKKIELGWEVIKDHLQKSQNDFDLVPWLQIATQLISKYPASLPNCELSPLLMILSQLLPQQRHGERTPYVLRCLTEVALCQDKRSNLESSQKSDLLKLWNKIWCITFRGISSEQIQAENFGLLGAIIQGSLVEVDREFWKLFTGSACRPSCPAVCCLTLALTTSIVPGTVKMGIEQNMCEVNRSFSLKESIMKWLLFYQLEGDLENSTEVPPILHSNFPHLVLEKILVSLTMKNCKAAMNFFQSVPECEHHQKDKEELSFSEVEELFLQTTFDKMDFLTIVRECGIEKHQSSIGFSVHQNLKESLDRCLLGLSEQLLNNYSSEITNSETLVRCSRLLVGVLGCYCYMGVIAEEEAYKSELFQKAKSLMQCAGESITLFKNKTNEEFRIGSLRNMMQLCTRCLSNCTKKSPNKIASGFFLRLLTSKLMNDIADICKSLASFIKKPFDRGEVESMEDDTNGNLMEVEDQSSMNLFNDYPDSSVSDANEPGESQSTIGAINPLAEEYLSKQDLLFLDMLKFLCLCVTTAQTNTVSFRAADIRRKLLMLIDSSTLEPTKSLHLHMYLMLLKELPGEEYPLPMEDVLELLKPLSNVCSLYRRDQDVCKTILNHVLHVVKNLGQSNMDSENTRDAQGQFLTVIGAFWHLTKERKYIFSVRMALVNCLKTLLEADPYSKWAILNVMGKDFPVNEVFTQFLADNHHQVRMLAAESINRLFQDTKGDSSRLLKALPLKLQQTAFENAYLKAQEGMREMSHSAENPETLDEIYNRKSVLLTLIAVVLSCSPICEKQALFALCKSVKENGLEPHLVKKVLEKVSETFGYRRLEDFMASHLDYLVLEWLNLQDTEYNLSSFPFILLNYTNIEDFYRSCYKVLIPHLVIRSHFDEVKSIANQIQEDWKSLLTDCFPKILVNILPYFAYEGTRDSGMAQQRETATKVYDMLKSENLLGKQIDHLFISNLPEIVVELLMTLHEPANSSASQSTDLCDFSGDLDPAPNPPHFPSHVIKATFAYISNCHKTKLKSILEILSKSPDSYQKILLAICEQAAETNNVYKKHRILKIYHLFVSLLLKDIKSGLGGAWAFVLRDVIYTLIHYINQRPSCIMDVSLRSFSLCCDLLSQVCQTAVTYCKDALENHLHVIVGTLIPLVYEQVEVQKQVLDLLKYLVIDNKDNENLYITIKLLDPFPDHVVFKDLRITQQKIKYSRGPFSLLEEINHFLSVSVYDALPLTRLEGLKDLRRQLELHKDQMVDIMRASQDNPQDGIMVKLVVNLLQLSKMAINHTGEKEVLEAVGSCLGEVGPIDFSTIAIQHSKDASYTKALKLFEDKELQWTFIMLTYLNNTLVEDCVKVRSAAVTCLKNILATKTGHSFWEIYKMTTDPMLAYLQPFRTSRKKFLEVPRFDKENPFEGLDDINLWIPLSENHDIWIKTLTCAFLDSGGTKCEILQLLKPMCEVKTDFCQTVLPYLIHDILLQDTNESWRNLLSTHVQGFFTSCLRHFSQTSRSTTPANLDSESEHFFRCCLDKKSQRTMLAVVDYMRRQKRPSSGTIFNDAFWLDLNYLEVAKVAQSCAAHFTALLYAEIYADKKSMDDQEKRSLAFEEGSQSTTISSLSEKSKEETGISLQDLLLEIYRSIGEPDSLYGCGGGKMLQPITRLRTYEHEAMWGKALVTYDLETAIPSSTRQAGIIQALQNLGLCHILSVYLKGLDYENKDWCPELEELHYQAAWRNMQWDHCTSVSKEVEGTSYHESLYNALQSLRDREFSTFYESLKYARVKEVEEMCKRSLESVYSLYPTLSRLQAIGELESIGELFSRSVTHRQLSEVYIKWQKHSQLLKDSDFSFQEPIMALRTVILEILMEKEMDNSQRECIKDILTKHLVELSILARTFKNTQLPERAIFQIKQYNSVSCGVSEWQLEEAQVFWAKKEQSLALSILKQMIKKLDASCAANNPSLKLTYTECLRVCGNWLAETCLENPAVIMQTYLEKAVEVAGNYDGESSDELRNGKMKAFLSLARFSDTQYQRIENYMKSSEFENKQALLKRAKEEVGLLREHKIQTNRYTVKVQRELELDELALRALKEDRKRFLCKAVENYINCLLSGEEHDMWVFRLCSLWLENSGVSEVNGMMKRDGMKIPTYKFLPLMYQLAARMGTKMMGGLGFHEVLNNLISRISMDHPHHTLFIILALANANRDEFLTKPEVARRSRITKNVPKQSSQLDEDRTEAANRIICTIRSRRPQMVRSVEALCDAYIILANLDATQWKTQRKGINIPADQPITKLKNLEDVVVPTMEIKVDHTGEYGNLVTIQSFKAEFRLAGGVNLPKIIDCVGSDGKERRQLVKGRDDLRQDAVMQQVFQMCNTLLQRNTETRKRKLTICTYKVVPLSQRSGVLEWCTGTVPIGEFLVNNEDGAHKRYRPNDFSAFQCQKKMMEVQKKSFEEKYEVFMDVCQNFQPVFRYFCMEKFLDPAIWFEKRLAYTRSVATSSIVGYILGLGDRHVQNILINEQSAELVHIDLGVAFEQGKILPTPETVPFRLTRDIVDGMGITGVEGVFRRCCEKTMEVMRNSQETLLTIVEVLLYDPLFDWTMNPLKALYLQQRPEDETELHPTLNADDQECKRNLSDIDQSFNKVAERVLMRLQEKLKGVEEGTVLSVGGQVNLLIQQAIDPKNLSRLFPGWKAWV
Experimental: Inhibition of cellular ATM activity was determined by changes in etoposide-stimulated KAP1 phosphorylation, based on the work of Guo et al. 2014.
Cryopreserved U20S cells were plated overnight at 6 k cells/well in black walled, clear bottomed 384 well plates (Greiner Bio One 781090). After overnight incubation (37 C, 5% CO2), cells were incubated with titrations of test compounds (0.3% DMSO final) in the presence of 100 μM etoposide (Sigma E1383) to stimulate ATM via induction of double stranded DNA breaks. After 60 min, cells were fixed using 100% cold methanol and incubated at −20° C. for 10 min. Fixed cells were washed with PBS containing 0.05% (v/v) Tween 20 (PBS-T) prior to a 60 minute blocking step in Odyssey blocking buffer (LI-COR Biosciences 92740000). Primary antibodies (1:1000 phosphorylated KAP1: Cell Signalling Technology 4127, 1:5000 total KAP1: Cell Signaling Technology 5868) were diluted in Odyssey blocking buffer and incubated overnight at 4° C., before addition of IRDye(R) conjugated secondary antibodies (LI-COR Biociences 926-32211, LI-COR Biosciences 926-68070) diluted 1:2000 in Odyssey blocking buffer for 60 min at room temperature and detection by LI-COR Odyssey (ImageStudio version 2.1.10, focus offset 4 mm, resolution 169 μm, lowest quality, intensities of 1 and 3 for 700 and 800 channels respectively). Immunoreactivity was quantified and the ratio of phosphorylated KAP1 calculated by dividing by the total KAP1 immunoreactivity. The percentage of inhibition was calculated for each concentration of compound using 100% (100 μM etoposide+30 μM KU-60019) and 0% effect controls (100 μM etoposide+DMSO). IC50 values represent the mean from at least two independent experiments.

Recombinant, full length human FLAG-tagged ATM, sequence (Q13315 whole entry): as above

Row | pIC50 [1] | pIC50 (cellular ATM activity) | Compound
1 | 7.99 | 6.56 | O=c1cc(N2CCOCC2)nc(N2CCCC(F)(F)C[C@@H]2Cc2ccccc2)[nH]1 [Example 244]
2 | 7.76 | 5.91 | CC1(C)CCC[C@H](Cc2ccccc2)N(c2nc(N3CCOCC3)cc(=O)[nH]2)C1 [Example 245]
3 | 8.41 | 6.38 | O=c1cc(N2CCOCC2)nc(N2CCCCC[C@@H]2Cc2ccsc2)[nH]1 [Example 248]
4 | 8.30 | 6.82 | C[C@@H](c1ccccc1)[C@@H]1CCCN1c1nc(N2CCOCC2)cc(=O)[nH]1 [Example 250, 6-morpholino-2-((S)-2-((S)-1-phenylethyl)pyrrolidin-1-yl)pyrimidin-4(3H)-one]
5 | 7.95 | 6.36 | O=c1cc(N2CCOCC2)nc(N2CCC(F)(F)[C@@H]2Cc2ccccc2)[nH]1 [Example 253, (S)-2-(2-benzyl-3,3-difluoropyrrolidin-1-yl)-6-morpholinopyrimidin-4(3H)-one]
6 | 7.15 | 5.90 | O=c1cc(N2CCOCC2)nc(N2CC[C@H](O)[C@@H]2Cc2ccccc2)[nH]1 [Example 255, 2-((2S,3S)-2-benzyl-3-hydroxypyrrolidin-1-yl)-6-morpholinopyrimidin-4(3H)-one]
7 | 8.40 | 6.39 | CO[C@@H]1CCN(c2nc(N3CCOCC3)cc(=O)[nH]2)[C@H]1Cc1ccccc1 [Example 257, 2-((2S,3R)-2-benzyl-3-methoxypyrrolidin-1-yl)-6-morpholinopyrimidin-4(3H)-one]
8 | 8.17 | 6.06 | O=c1cc(N2CCOCC2)nc(N2CC[C@@H](O)[C@@H]2Cc2ccccc2)[nH]1 [Example 258, 2-((2S,3R)-2-benzyl-3-hydroxypyrrolidin-1-yl)-6-morpholinopyrimidin-4(3H)-one]
9 | 8.77 | 6.71 | O=c1cc(N2CCOCC2)nc(N2CC[C@@H](F)[C@@H]2Cc2ccccc2)[nH]1 [Example 259, 2-((2S,3R)-2-benzyl-3-fluoropyrrolidin-1-yl)-6-morpholinopyrimidin-4(3H)-one]
10 | 7.21 | 5.52 | C[C@H]1CCN(c2nc(N3CCOCC3)cc(=O)[nH]2)[C@H]1Cc1ccccc1 [Example 261, 2-((2S,3S)-2-benzyl-3-methylpyrrolidin-1-yl)-6-morpholinopyrimidin-4(3H)-one]
11 | 8.01 | 6.55 | O=c1cc(N2CCOCC2)nc(N2CC3(CC3)C[C@@H]2Cc2ccccc2)[nH]1 [Example 262, (S)-2-(6-benzyl-5-azaspiro[2.4]heptan-5-yl)-6-morpholinopyrimidin-4(3H)-one]
12 | 8.28 | 6.46 | COc1ccccc1C[C@H]1CC2(CC2)CN1c1nc(N2CCOCC2)cc(=O)[nH]1 [Example 264, (R)-2-(6-(2-methoxybenzyl)-5-azaspiro[2.4]heptan-5-yl)-6-morpholinopyrimidin-4(3H)-one]
13 | 8.13 | 6.09 | C[C@@H]1CN(c2cc(=O)[nH]c(N3CCCCC[C@@H]3Cc3ccccc3)n2)CCO1 [Example 270, 2-((R)-2-benzylazepan-1-yl)-6-((R)-2-methylmorpholino)pyrimidin-4(3H)-one]
14 | 7.62 | 5.67 | C[C@@H]1CN(c2cc(=O)[nH]c(N3CCC[C@@H]3Cc3ccccc3)n2)CCO1 [Example 271, 2-((R)-2-benzylpyrrolidin-1-yl)-6-((R)-2-methylmorpholino)pyrimidin-4(3H)-one]
15 | 7.49 | 6.39 | Cc1ccc(C[C@H]2CCCN2c2nc(N3CCO[C@H](C)C3)cc(=O)[nH]2)cc1 [Example 274, 4-[(2R)-2-methylmorpholin-4-yl]-2-[(2R)-2-(p-tolylmethyl)pyrrolidin-1-yl]-1H-pyrimidin-6-one]
16 | 7.24 | 6.38 | Cc1cc(C[C@H]2CCCN2c2nc(N3CCO[C@H](C)C3)cc(=O)[nH]2)cc(C)n1 [Example 277, 2-[(2R)-2-[(2,6-dimethyl-4-pyridyl)methyl]pyrrolidin-1-yl]-4-[(2R)-2-methylmorpholin-4-yl]-1H-pyrimidin-6-one]
17 | 7.05 | 6.01 | C[C@@H]1CN(c2cc(=O)[nH]c(N3CCC[C@@H]3Cc3ccc(Cl)c(Cl)c3)n2)CCO1 [Example 278, 2-[(2R)-2-[(3,4-dichlorophenyl)methyl]pyrrolidin-1-yl]-4-[(2R)-2-methylmorpholin-4-yl]-1H-pyrimidin-6-one]

Further lines, the compound ahead of its results:

Row | Compound | pIC50 [1] | pIC50 (cellular ATM activity)
18 | O=c1cc(N2CCOCC2)nc(N2CCCC[C@@H]2Cc2ccccc2)[nH]1 [Example 199] | 8.55 | 6.90
19 | COc1ccccc1C[C@H]1CCCCCN1c1nc(N2CCOCC2)cc(=O)[nH]1 [Example 201] | 7.85 | 6.16
20 | COc1cccc(C[C@H]2CCCCCN2c2nc(N3CCOCC3)cc(=O)[nH]2)c1 [Example 203] | 8.72 | 6.37
21 | O=c1cc(N2CCOCC2)nc(N2CCCCC[C@@H]2Cc2ccccc2Cl)[nH]1 [Example 205] | 7.40 | 6.10
22 | O=c1cc(N2CCOCC2)nc(N2C[C@@H]3C[C@@H]3[C@@H]2Cc2ccc(F)cc2)[nH]1 [Example 207] | 8.36 | 6.68
23 | O=c1cc(N2CCOCC2)nc(N2C[C@H]3C[C@H]3[C@@H]2Cc2ccc(F)cc2)[nH]1 [Example 209] | 8.05 | 6.42
24 | O=c1cc(N2CCOCC2)nc(N2C[C@@H]3C[C@@H]3[C@@H]2Cc2ccccc2)[nH]1 [Example 211] | 8.43 | 6.35
25 | O=c1cc(N2CCOCC2)nc(N2C[C@H]3C[C@H]3[C@@H]2Cc2ccccc2)[nH]1 [Example 213] | 8.96 | 6.87
26 | C[C@@H]1CCN(c2nc(N3CCOCC3)cc(=O)[nH]2)[C@H]1Cc1ccccc1 [Example 215] | 9.00 | 7.13
27 | COc1ccccc1C[C@H]1[C@H](C)CCN1c1nc(N2CCOCC2)cc(=O)[nH]1 [Example 217] | 8.15 | 6.30
28 | O=c1cc(N2CCOCC2)nc(N2CCCCC[C@@H]2Cc2ccc(F)cc2)[nH]1 [Example 222] | 8.24 | 6.79
29 | O=c1cc(N2CCOCC2)nc(N2CCCCC[C@@H]2Cc2cccc(F)c2F)[nH]1 [Example 223] | 7.58 | 6.29
30 | O=c1cc(N2CCOCC2)nc(N2CCCCC[C@@H]2Cc2cccc3c2OCC3)[nH]1 [Example 225] | 8.41 | 6.59
31 | COc1cc(F)ccc1C[C@H]1CCCCCN1c1nc(N2CCOCC2)cc(=O)[nH]1 [Example 228] | 7.16 | 6.12
32 | COc1cccc(C[C@H]2CCCCCN2c2nc(N3CCOCC3)cc(=O)[nH]2)c1OC [Example 230] | 7.15 | 6.06
33 | COc1c(F)cccc1C[C@H]1CCCCCN1c1nc(N2CCOCC2)cc(=O)[nH]1 [Example 231] | 7.08 | 5.96
34 | C[C@H]1CCCN(c2nc(N3CCOCC3)cc(=O)[nH]2)[C@@H](Cc2ccccc2)C1 [Example 233] | 8.92 | 6.49
35 | C[C@H]1CCCN(c2nc(N3CCOCC3)cc(=O)[nH]2)[C@@H](Cc2ccc(F)cc2)C1 [Example 235] | 8.28 | 6.36
36 | COc1ccccc1C[C@H]1C[C@@H](C)CCCN1c1nc(N2CCOCC2)cc(=O)[nH]1 [Example 237] | 7.45 | 6.23
37 | COc1ccccc1CC1CC(F)(F)CCCN1c1nc(N2CCOCC2)cc(=O)[nH]1 (stereo not shown) [Example 239] | 7.44 | 5.70
38 | CC1(C)CCCN(c2nc(N3CCOCC3)cc(=O)[nH]2)[C@@H](Cc2ccccc2)C1 [Example 242] | 7.07 | 5.01
